In publication PMC1079869 (BMC Neuroscience, 2005):
Entries after “also recorded” stand apart in the source; their conditions may differ.

Columns and labels:
[1] = biological target: T1, c-MYC-tagged human delta opioid receptor (Homo sapiens, UniProt P41143); assay: FACS analysis of agonist-induced DOR internalization (cell surface fluorescence)
Method: The CHO/MYChDOR cells were collected and suspended into the culture medium. The cells were treated with drugs in suspension as for the immunocytochemistry for the indicated times. After the incubation, the membrane trafficking was stopped by rapidly chilling the cells on ice and removing the medium. After this the cells were kept on ice. The cells were washed with PBS and stained in PBS-suspension with rabbit anti-MYC antibody (1 % normal goat serum (v/v) used to block unspecific binding), followed by the detection with a fluorescent secondary antibody. Dead cells were detected with isopropidium iodide. Cells were analyzed with FACScan flow cytometer (Becton Dickinson and Co., Mountain View, CA, USA). Data from 10000 cells were collected for each run and each sample was run in replicate or triplicate.
The internalization percent was calculated as: [drawing 1] where F(ctrl) in the fluorescence of the time-matched control cells and the F(sample) is the fluorescence measured from the drug-treated cells.
10000 cells/sample were analyzed with FACS.

pain = tested on: pain; parameters: method as in 5 sources, ref 1 = [1]; PMID 3865193; doi:10.1073/pnas.82.22.7757; Yang H-YT Fratta W Majane EA Costa E Isolation, sequencing, synthesis, and pharmacological characterization of two brain neuropeptides that modulate the action of morphine Proc Natl Acad Sci U S A 198 ||| ref 4 = [4]; PMID 8821539; doi:10.1111/j.1476-5381.1996.tb15217.x; Gouarderes C Jhamandas K Sutak M Zajac JM Role of opioid receptors in the spinal antinociceptive effects of neuropeptide FF analogues Br J Pharmacol 1996 117 493 501 8821539 10.1111/j.1476-5381.1996.t ||| ref 44 = [44]; PMID 10499424; doi:10.1016/S0196-9781(99)00100-X; Xu M Kontinen VK Panula P Kalso E Effects of (1DMe)NPYF, a synthetic neuropeptide FF analogue, in different pain models Peptides 1999 20 1211 1217 10499424 10.1016/S0196-9781(99)00100-X ||| ref 4, 44 = [4]; PMID 8821539; doi:10.1111/j.1476-5381.1996.tb15217.x; Gouarderes C Jhamandas K Sutak M Zajac JM Role of opioid receptors in the spinal antinociceptive effects of neuropeptide FF analogues Br J Pharmacol 1996 117 493 501 8821539 10.1111/j.1476-5381.1996.t || [44]; PMID 10499424; doi:10.1016/S0196-9781(99)00100-X; Xu M Kontinen VK Panula P Kalso E Effects of (1DMe)NPYF, a synthetic neuropeptide FF analogue, in different pain models Peptides 1999 20 1211 1217 10499424 10.1016/S0196-9781(99)00100-X ||| ref 46 = [46]; PMID 12507715; doi:10.1016/S0304-3959(02)00333-0; Cahill CM Morinville A Hoffert C O'Donnell D Beaudet A Up-regulation and trafficking of delta opioid receptor in a model of chronic inflammation: implications for pain control Pain 2003 101 199 208 12; details: cited from earlier work; for effect on NPFF-induced analgesia / antinociception: opioid antagonist against intrathecal NPFF; for antagonism of analgesic effects of NPFF in vivo: opioid antagonists
rat pituitary cells = details: cited from earlier work
Excerpt: The dose-dependence of NPFF-agonist on the BMAX was bell-shaped. This could imply that the NPFF-analogue affects only some conformations of the receptor. […] However, the receptor involved in the prolactin release mechanism was not characterized.

opioid receptor subtypes = details: any opioid receptor subtype; cited from earlier work
Excerpt: (§1) The interaction between NPFF and opioid system in pain and analgesia seems to be complex in nature and the molecular mechanisms behind the observed physiological effects are not known. […] In the rat spinal cord, the highest NPFF-like immunoreactivity is found in the superficial layers of the dorsal h ...

presynaptic DOR = details: pontine parabrachial nucleus, via presynaptic DOR; cited from earlier work
Excerpt: as §1

[2] = tested on: opioid withdrawal syndrome; details: supraspinal administration; cited from earlier work
Excerpt: as §1

neuropathic rats = details: periaqueductal grey; cited from earlier work
Excerpt: as §1

NPFF1R = details: cited from earlier work
Excerpt: (§2) At the physiological level NPFF seems to have both a direct analgesic effect and a modulatory effect on the opioid system. Some of the effects may be mediated via the NPFF receptors as two such receptors, NPFF1R and NPFF2R, have been identified. […] Also the other RFamide peptides bind to the NPFF receptors with varying affinities, and therefore the exact nature of the receptor-ligand interactions between RFamides and their receptors is still unclear.

NPFF2R = details: cited from earlier work
Excerpt: as §2

[3] = biological target: T1, c-MYC-tagged human delta opioid receptor; type: cell-based
[4] = tested on: MAP-kinase p42MAPK (ERK2); assay: Phosphorylation of MAPK (ERK2) in CHO/MYChDOR cells, immunoblot; type: cell-based, Chinese hamster
Method: 25000 cells/well were seeded onto 24-well plates and incubated o/n. The medium was replaced with serum-free medium and the cells were incubated for one hour at 37°C. […] The reaction was stopped by removing the medium and adding modified RIPA-lysis buffer (PBS, pH 7.6; 1 % Nonidet P-40 (v/v); 0.5 % sodium deoxycholate (w/v); 0.1 % SDS (w/v), 10 mM NaF; 0.4 mM PMSF, 10 μg/ml aprotinin, 10 μg/ml leupeptin, 2 mM […]; 0.2 mM bestatin). Cells were lysed on ice for 15 min and the lysates were collected. The protein content was determined with the Bradford method.
10 μg of protein was analyzed on 10 % SDS-PAGE gel and the gel was blotted onto nitrocellulose membrane. […] After washes, the membrane was detected with the ECL-protocol. The band intensities were measured with AlphaDigiDoc1000 documentation system (Alpha Innotech, San Leandro, CA, USA). […]
Figure 6 DOR agonist induced phosphorylation of the MAP-kinase, ERK2, is increased by (1DMe)NPYF. A. Total cell lysates (10 μg protein per lane) were detected with phosphoERK2 and total ERK2 specific antibodies. […] B. The band intensities of phosphoERK2 were quantified and they are presented as relative band intensities with respect to the total ERK2. […] The statistical significance between time-points and treatments was analyzed with two-way Anova with Bonferroni's post-test, n = 5. […]

[5] = biological target: T1, c-MYC-tagged human delta opioid receptor; assay: Tb-DeltI binding on CHO/MYChDOR whole cells, effect of (1DMe)NPYF (time-resolved fluorometry)
Method: 6 μg of crude membrane preparations or whole cells (25 000 cell/well) that were plated one day before experiment and fixed with 4 % PFA for 10 min at room temperature, were used in the saturation binding experiments. The whole cell assays were carried out on normal cell culture plates and the assays with membrane preparations on special filter plates (Pall Life Sciences). The cells or membranes were incubated in 50 mM Tris/HCl pH 7.5; 2.5 mM MgCl2; 60 mM NaCl; 25 μM EDTA, 0.2 % BSA (w/v) for 90 min at room temperature with 0.01 – 781.25 nM Tb-DeltI in the presence or absence of 1 or 5 μM unlabeled DeltI. To study the effect of (1DMe)NPYF on the Tb-DeltI binding, 1–1000 nM (1DMe)NPYF was added together with unlabeled DeltI. After the incubation the unbound Tb-DeltI was removed by washing the plates four times with 50 mM Tris/HCl pH 7.5; 2.5 mM MgCl2. Vacuum pump system was used to wash the filter plates. Since the chelate-bound Tb-ion is nonfluorescent, it needed to be released from the complex. In order to release Tb-ion from the chelate 150 μl Delfia enhancement solution was added to the wells and the plates were incubated on a shaker for 15 min. Thereafter, 40 μl Delfia enhancer that changes the pH of the assay solution appropriate for Tb-fluorescence was added, and the plates were further incubated for 5 min on a shaker. The time-resolved fluorescence of the released Tb-ion was measured with Victor^2 Multilabel counter (Perkin Elemer Wallac, Turku, Finland).

[6] = 100 nM (1DMe)NPYF alone, 5, 10, 30 min, 37°C

T1 sequence (P41143 whole entry): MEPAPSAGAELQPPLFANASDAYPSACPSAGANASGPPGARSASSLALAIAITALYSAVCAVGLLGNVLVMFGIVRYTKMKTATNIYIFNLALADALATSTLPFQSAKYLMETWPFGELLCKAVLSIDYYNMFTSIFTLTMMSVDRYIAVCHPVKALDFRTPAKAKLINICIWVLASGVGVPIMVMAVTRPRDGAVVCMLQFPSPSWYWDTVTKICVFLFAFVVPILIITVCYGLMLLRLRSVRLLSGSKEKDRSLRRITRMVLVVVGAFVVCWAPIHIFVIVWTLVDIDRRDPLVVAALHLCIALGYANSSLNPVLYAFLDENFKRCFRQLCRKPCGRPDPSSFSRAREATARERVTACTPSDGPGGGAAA

Oc1ccc2c3c1O[C@H]1c4[nH]c5ccccc5c4C[C@@]4(O)[C@@H](C2)N(CC2CC2)CC[C@]314 [naltrindole]
block of receptor activation by DOR agonists and of enhanced activation by co-applied (1DMe)NPYF ([1]; DOR antagonist with DOR agonists ± (1DMe)NPYF): could completely block | effect on NPFF-induced analgesia / antinociception (pain): inhibits the NPFF-induced antinociception; also recorded: reduced | antagonism of analgesic effects of NPFF in vivo (pain): blocked

FLFQPQRFamide [NPFF, RFamide peptide originally isolated from bovine brain]
effect on prolactin release, dose-response (rat pituitary cells): bell-shaped dose-response curve | displacement of opioid receptor ligands (opioid receptor subtypes): does not displace opioid receptor ligands from any of the opioid receptor subtypes | modulation of synaptic transmission (presynaptic DOR): modulates synaptic transmission through interaction with presynaptic DOR | opioid withdrawal syndrome [2]: precipitates opioid withdrawal syndrome | attenuation of tactile allodynia (neuropathic rats): selective attenuation of tactile allodynia | binding to NPFF1R (NPFF1R): binds to both of them | binding to NPFF2R (NPFF2R): binds to both of them | effect on opiate-induced analgesia (pain): potentiated | analgesia, intrathecal (pain; intrathecal): long-lasting analgesia | effect on opioid antinociception (pain; supraspinal administration): attenuates opioid antinociception

Y-D-AFDVVG-NH2 [DeltI, peptidic DOR agonist]
enhanced antinociceptive activity correlated with receptor recruitment (pain; recruitment of spinal opioid receptors to plasma membrane, inflammation): enhanced antinociceptive activity of DeltI is correlated with the recruitment of spinal opioid receptors from intracellular stores to the plasma membrane

C=CCN1CC[C@]23c4c5ccc(O)c4O[C@H]2C(=O)CC[C@@]3(O)[C@H]1C5 [naloxone]
effect on NPFF-induced analgesia / antinociception (pain): reduced | antagonism of analgesic effects of NPFF in vivo (pain): blocked

D-YL-(NMe)-FQPQRF-NH2 [(1DMe)NPYF]
effect on DPDPE-induced cAMP inhibition [3]: had hardly an effect on the cAMP accumulation | effect on DPDPE-induced inhibition of cAMP accumulation [3]: enhanced the DOR agonist induced inhibition of cAMP accumulation significantly at all tested DPDPE concentrations | effect on the amount of cAMP [3]: did not have any significant effect on the amount of cAMP | enhancement of inhibitory effect of DOR agonists on cAMP accumulation [3]: able to enhance the inhibitory effect of other DOR agonists, e.g. DeltI | DOR internalization [1, 6]: did not induce receptor internalization at any time-point tested | cell surface fluorescence ([1]; 100 nM (1DMe)NPYF alone, 30 min, vs time-matched control cells): somewhat higher fluorescence | activation of ERK2 [4, 6]: did not result in the activation of ERK2 | effect on ERK2 activation induced by DPDPE ([4]; 100 nM (1DMe)NPYF together with 100 nM DPDPE): significantly promoted the activation induced by DPDPE | effect on the BMAX for Tb-DeltI ([5]; 1 nM and 10 nM (1DMe)NPYF, whole cells): significantly decreased the BMAX | effect on the KD for Tb-DeltI ([5]; 1–1000 nM (1DMe)NPYF, whole cells): only modestly affected | dose-dependence of effect on the BMAX ([5]; 1–1000 nM, whole cells): bell-shaped | effect on the BMAX for Tb-DeltI ([5]; higher concentrations of (1DMe)NPYF, whole cells): affected the BMAX only modestly | displacement of Tb-DeltI at micromolar concentration ([5]; only micromolar concentration, whole cell and membrane assays): could displace Tb-DeltI in whole cell and membrane binding assays to some extent
